From PMC5706701, “Development of a homogenous high-throughput assay for inositol hexakisphosphate kinase 1 activity” (PLoS ONE, 2017)
Counter-ions that a name gives are not always drawn. Like-named read-outs stand apart in the source and are kept apart here.

Biological target: T1, Human IP6K1 (Homo sapiens, UniProt Q92551)
T1 construct: GST (N, cleaved yes); made in house; host or cells: C43 E. coli, pGEX-6P-2
Assay: IP6K1 high-throughput screen of the Sigma LOPAC (ADP-Glo Max, single point);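 further: final compound concentration 10µM in 5% DMSO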
Format: biochemical

[1] = LOPAC single-point screen, ADP-Glo Max luminescence raw signal per well
[2] = LOPAC single-point screen, Z-score from plate average and StDev
[3] = LOPAC single-point screen, ADP-Glo Max raw signal per well
[4] = LOPAC single-point screen, Z-score against plate average and StDev
[5] = Sigma LOPAC single-point screen, ADP-Glo Max raw signal per well
[6] = Sigma LOPAC single-point screen, Z-score from plate average and StDev
[7] = LOPAC single-point screen, Z-score relative to plate average and StDev
[8] = LOPAC single-point screen, Z-score from raw signal with plate average and StDev

T1 sequence (Q92551 whole entry): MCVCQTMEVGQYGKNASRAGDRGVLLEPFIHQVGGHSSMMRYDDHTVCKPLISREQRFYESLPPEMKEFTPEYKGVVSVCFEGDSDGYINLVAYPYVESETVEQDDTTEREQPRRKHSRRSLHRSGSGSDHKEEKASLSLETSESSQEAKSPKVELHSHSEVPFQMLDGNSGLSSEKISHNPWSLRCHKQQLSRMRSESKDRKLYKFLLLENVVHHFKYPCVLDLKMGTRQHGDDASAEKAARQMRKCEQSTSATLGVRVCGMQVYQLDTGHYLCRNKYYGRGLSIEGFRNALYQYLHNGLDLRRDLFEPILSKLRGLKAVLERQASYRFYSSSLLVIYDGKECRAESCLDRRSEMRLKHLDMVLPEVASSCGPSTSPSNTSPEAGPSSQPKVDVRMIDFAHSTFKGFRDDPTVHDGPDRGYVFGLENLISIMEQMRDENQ

## COC(=O)C(N)Cc1ccc(Cl)cc1.Cl (racemic)
[1]
  Raw Signal: 67025
[2]
  Z-score: 1.605

## COc1ccc(C2CNC(=O)C2)cc1OC1CCCC1 (centres unmarked) [Rolipram]
[3]
  Raw Signal: 57545
[4]
  Z-score: 0.2955

## O=c1[nH]c(=O)n([C@H]2C[C@H](O)[C@@H](CO)O2)cc1/C=C/Br [(E)-5-(2-Bromovinyl)-2-deoxyuridine]
[3]
  Raw Signal: 57888
[4]
  Z-score: -0.004421

## CC(Cc1ccc(O)cc1)NCC(O)c1cc(O)cc(O)c1 (centres unmarked) [Fenoterol hydrobromide]
[3]
  Raw Signal: 56195
[4]
  Z-score: 0.2088

## CN/C(=N/CCSCc1nc[nH]c1C)NC#N [Cimetidine]
[5]
  Raw Signal: 62612
[6]
  Z-score: 0.8276

## SKF 83565 hydrobromide
[5]
  Raw Signal: 61448
[6]
  Z-score: 1.054

## N=C(N)c1ccc(OCCCCCOc2ccc(C(=N)N)cc2)cc1 [Pentamidine isethionate]
[3]
  Raw Signal: 54696
[4]
  Z-score: 0.05083

## CN1CCC(c2c[nH]c3ccc(O)cc23)CC1.O=C(O)/C=C\C(=O)O [BRL 54443 maleate]
[1]
  Raw Signal: 53701
[7]
  Z-score: -0.7419

## CC(=O)O[C@H]1C(=O)[C@@]2(C)[C@H]([C@H](OC(=O)c3ccccc3)[C@]3(O)C[C@H](OC(=O)[C@H](O)[C@@H](NC(=O)c4ccccc4)c4ccccc4)C(C)=C1C3(C)C)[C@]1(OC(C)=O)CO[C@@H]1C[C@@H]2O [Taxol]
[5]
  Raw Signal: 58493
[6]
  Z-score: 0.4797

## N=C(N)SCCc1cnc[nH]1 [Imetit dihydrobromide]
  Raw Signal: 60718
  Z-score: 1.063

## CN(C)c1nc(N(C)C)nc(N(C)C)n1 [Altretamine]
[1]
  Raw Signal: 69030
[2]
  Z-score: 1.958

## CC(C(O)c1ccc(O)cc1)N1CCC(Cc2ccccc2)CC1.CC(C(O)c1ccc(O)cc1)N1CCC(Cc2ccccc2)CC1.O=C(O)C(O)C(O)C(=O)O (centres unmarked) [Ifenprodil tartrate]
[3]
  Raw Signal: 56294
[4]
  Z-score: 0.3193

## OC[C@H]1O[C@@H](n2cnc3c(Nc4ccccc4)ncnc32)[C@H](O)[C@@H]1O [N6-Phenyladenosine]
[3]
  Raw Signal: 55025
[8]
  Z-score: -0.194

## N#C/C(=C\c1ccc(O)c(O)c1)C(=O)c1ccc(O)c(O)c1 [Tyrphostin AG 538]
[1]
  Raw Signal: 38614
[7]
  Z-score: -3.382

## CC(=O)OC(C)C[N+](C)(C)C.[Cl-] (stereo not drawn) [Acetyl-beta-methylcholine chloride]
[1]
  Raw Signal: 54689
[7]
  Z-score: -0.5679

## CC(=O)S[C@@H]1CC2=CC(=O)CC[C@]2(C)[C@H]2CC[C@@]3(C)[C@@H](CC[C@@]34CCC(=O)O4)[C@H]12 [Spironolactone]
[1]
  Raw Signal: 50910
[7]
  Z-score: -0.9935

## CC(C)[C@H](CO)Nc1nc(Nc2cccc(Cl)c2)c2ncn(C(C)C)c2n1 [Purvalanol A]
[3]
  Raw Signal: 54135
[4]
  Z-score: -0.04344

## C#CCn1c(=O)c2c(ncn2C)n(C)c1=O [3,7-Dimethyl-I-propargylxanthine]
[1]
  Raw Signal: 50513
[7]
  Z-score: -0.9452

## NC(=O)CI [Iodoacetamide]
[1]
  Raw Signal: 64727
[2]
  Z-score: 1.942

## CN1C(C)(C)CCCC1(C)C [Pempidine tartrate]
[5]
  Raw Signal: 56899
[6]
  Z-score: 0.421

## NC(=O)CC[C@H](N)C(=O)O [L-Glutamine]
[5]
  Raw Signal: 57892
[6]
  Z-score: 0.5534

## Cc1c2ccncc2c(C)c2c1[nH]c1ccccc12 [Ellipticine]
[1]
  Raw Signal: 50782
[7]
  Z-score: -0.8906

## O=C(c1cc(O)c(O)c([N+](=O)[O-])c1)c1ccccc1F [Ro 41-0960]
[5]
  Raw Signal: 58523
[6]
  Z-score: 0.4855

## CCNC(=O)[C@H]1O[C@@H](n2cnc3c(N)nc(NCCc4ccc(CCC(=O)O)cc4)nc32)[C@H](O)[C@@H]1O.Cl [CGS-21680 hydrochloride]
[1]
  Raw Signal: 62301
[2]
  Z-score: 1.449

## Br.COc1ccccc1N1CCN(CCCCN2C(=O)c3ccccc3C2=O)CC1 [NAN-190 hydrobromide]
[5]
  Raw Signal: 61226
[6]
  Z-score: 1.148

## Cc1nc(-c2ccc(-c3ccc(C(=O)N4CCc5cc6c(cc54)C4(CCN(C)CC4)CO6)cc3)c(C)c2)no1.Cl [SB 224289 hydrochloride]
[5]
  Raw Signal: 58823
[6]
  Z-score: 0.5438

## NC/C=C/C(=O)O [(E)-4-amino-2-butenoic acid]
[1]
  Raw Signal: 52183
[7]
  Z-score: -1.009

## Cl.O=C(O)C1CCCN(CCC=C(c2ccccc2)c2ccccc2)C1 (centres unmarked) [SKF 89976A hydrochloride]
[3]
  Raw Signal: 57225
[4]
  Z-score: 0.2334

## NS(=O)(=O)Cc1noc2ccccc12 [Zonisamide sodium]
[3]
  Raw Signal: 56166
[4]
  Z-score: 0.02763

## CSc1ccc2c(c1)C(N1CCN(C)CC1)Cc1ccccc1S2 (centres unmarked) [Methiothepin mesylate]
[5]
  Raw Signal: 58558
[6]
  Z-score: 0.6997

## O=C(O)C1CCNCC1 [Isonipecotic acid]
[3]
  Raw Signal: 51826
[8]
  Z-score: -0.4314

## CC(=O)NCCc1ccc(O)c(O)c1.O [N-Acetyldopamine monohydrate]
[5]
  Raw Signal: 60782
[6]
  Z-score: 0.5053

## CN1CCC(=C2c3ccccc3C=Cc3ccccc32)CC1 [Cyproheptadine hydrochloride]
[5]
  Raw Signal: 61620
[6]
  Z-score: 0.6529

## O=C(O)[C@@H]1[C@H](C(=O)O)[C@H]2CC[C@@H]1O2 [Endothall]
[5]
  Raw Signal: 58370
[6]
  Z-score: 0.6505

## CN(C)C/C=C(/c1ccc(Br)cc1)c1cccnc1 [Zimelidine dihydrochloride]
[1]
  Raw Signal: 63127
[2]
  Z-score: 1.38

## CCCCCCCCCC(=O)N[C@H](CN1CCOCC1)[C@H](O)c1ccccc1.Cl (racemic)
[5]
  Raw Signal: 58472
[6]
  Z-score: 0.4756

## O=C(O)C1=CC(=C(c2ccc(O)c(C(=O)O)c2)c2ccc(O)c(C(=O)O)c2)C=CC1=O [Aurintricarboxylic acid]
[1]
  Raw Signal: 8090
[7]
  Z-score: -8.775

## Br.C=CCN1CCc2c(cc(O)c(O)c2Br)[C@@H](c2ccccc2)C1 [R(+)-6-Bromo-APB hydrobromide]
[3]
  Raw Signal: 58651
[4]
  Z-score: 0.13

## CC(C)NCC(O)c1cc(O)cc(O)c1.CC(C)NCC(O)c1cc(O)cc(O)c1.O=S(=O)(O)O (centres unmarked) [Metaproterenol hemisulfate]
[3]
  Raw Signal: 55094
[4]
  Z-score: 0.1177

## C[C@H](N)CN1CCc2ccc(Br)cc21.C[C@H](N)CN1CCc2ccc(Br)cc21.O=C(O)/C=C/C(=O)O [VER-3323 hemifumarate salt]
[5]
  Raw Signal: 59728
[6]
  Z-score: 0.8963

## C[C@]12CC[C@@H]3c4ccc(O)cc4CC[C@H]3[C@@H]1CCC2=O [Estrone]
[3]
  Raw Signal: 53604
[8]
  Z-score: -0.3174

## (-)-3-Methoxynaltrexone hydrochloride
[3]
  Raw Signal: 54969
[4]
  Z-score: 0.0967

## O=C1NC(=O)C(c2ccccc2)(c2ccccc2)N1 [Phenytoin sodium]
[1]
  Raw Signal: 66782
[2]
  Z-score: 2.359

## OC1(c2ccc(Cl)cc2)CCN(Cc2c[nH]c3ccccc23)CC1 [L-741,626]
[1]
  Raw Signal: 51249
[7]
  Z-score: -0.5284

## CC(C)[N+]1(C)[C@@H]2CC[C@H]1C[C@@H](OC(=O)C(CO)c1ccccc1)C2 (some centres unmarked) [Ipratropium bromide]
[5]
  Raw Signal: 56944
[6]
  Z-score: 0.3609

## COC(=O)C(C)(N)Cc1ccc(O)cc1.Cl (racemic)
[3]
  Raw Signal: 52897
[8]
  Z-score: -0.2515
